# Laboratory results as given in publication PMC11418745 (Molecular cell, 2023).
# Like-named read-outs stand apart in the source and are kept apart here.
# Key:
# EcSIR2 dodecamer = EcSIR2 dodecamer (Escherichia coli, UniProt A0ABF7PQ24); experiment: cryo-EM structure, […] Å; assay type: binding; settings: active site of SIR2 dodecamer without HerA; not hydrolysed
# [1] = target: T1, SIR2-HerA complex (SIR2 NADase site) (Escherichia coli, UniProt A0ABF7PQ24); experiment: cryo-EM structure, […] Å; assay type: binding; settings: SIR2 active site; 12:6 complex (also 12:5 8SUB and 12:4 8SUW)
# [2] = target: T1, SIR2-HerA complex (SIR2 NADase site); experiment: ε-NAD+ fluorescence NADase assay; assay type: biochemical; settings: 0.5 μM protein, 20 mM Tris pH 8.0, 75 mM KCl, 2 mM MgCl2, 33 °C
# [3] = target: SIR2-HerA complex (HerA nucleotide site) (Escherichia coli, UniProt A0ABF7PQ25); experiment: ATPase kit, colorimetric phosphate; assay type: biochemical; settings: 20 mM Tris pH 8.0, 75 mM KCl, 2 mM MgCl2, 37 °C
# cryo-EM structure [4] = target: the molecule itself; experiment: cryo-EM structure
# cryo-EM structure [5] = target: the molecule itself; experiment: cryo-EM structure; remark: listed apart in the source
molecule,measurement,setting,value
NC(=O)c1ccc[n+]([C@@H]2O[C@H](COP(=O)(O)OP(=O)(O)OC[C@H]3O[C@@H](n4cnc5c(N)ncnc54)[C@H](O)[C@@H]3O)[C@@H](O)[C@H]2O)c1 [NAD^+],"cryo-EM structure, 3.6 Å",EcSIR2 dodecamer,identified an NAD^+ molecule in the active site of EcSIR2
Nc1ncnc2c1ncn2[C@@H]1O[C@H](COP(=O)(O)OP(=O)(O)OC[C@H]2OC(O)[C@H](O)[C@@H]2O)[C@@H](O)[C@H]1O (stereo partly shown) [ADPR],"cryo-EM structure, 2.83 Å",[1],"an ADPR molecule, the product of NAD^+ hydrolysis, occupied the active site of EcSIR2"
NC(=O)c1ccc[n+]([C@@H]2O[C@H](COP(=O)(O)OP(=O)(O)OC[C@H]3O[C@@H](n4cnc5c4ncn4ccnc54)[C@H](O)[C@@H]3O)[C@@H](O)[C@H]2O)c1 [ε-NAD^+],ε-NAD+ fluorescence NADase assay,[2],"To test the NADase activities of the SIR2-HerA complex and SIR2 alone, ε-NAD^+ assays"
Nc1ncnc2c1ncn2[C@@H]1O[C@H](COP(=O)(O)OP(=O)(O)OP(=O)(O)O)[C@@H](O)[C@H]1O [ATP],"ATPase kit, colorimetric phosphate",[3],"the SIR2-HerA complex, not HerA alone, can hydrolyze ATP"
E. coli HerA (EcHerA) co-expressed with SIR2 as the SIR2-HerA complex (enzyme) MSLFKLTEISAIGYVVGLEGERIRINLHEGLQGRLASHRKGVSSVTQPGDLIGFDAGNILVVARVTDMAFVEADKAHKANVGTSDLADIPLRQIIAYAIGFVKRELNGYVFISEDWRLPALGSSAVPLTSDFLNIIYSIDKEELPKAVELGVDSRTKTVKIFASVDKLLSRHLAVLGSTGYGKSNFNALLTRKVSEKYPNSRIVIFDINGEYAQAFTGIPNVKHTILGESPNVDSLEKKQQKGELYSEEYYCYKKIPYQALGFAGLIKLLRPSDKTQLPALRNALSAINRTHFKSRNIYLEKDDGETFLLYDDCRDTNQSKLAEWLDLLRRRRLKRTNVWPPFKSLATLVAEFGCVAADRSNGSKRDAFGFSNVLPLVKIIQQLAEDIRFKSIVNLNGGGELADGGTHWDKAMSDEVDYFFGKEKGQENDWNVHIVNMKNLAQDHAPMLLSALLEMFAEILFRRGQERSYPTVLLLEEAHHYLRDPYAEIDSQIKAYERLAKEGRKFKCSLIVSTQRPSELSPTVLAMCSNWFSLRLTNERDLQALRYAMESGNEQILKQISGLPRGDAVAFGSAFNLPVRISINQARPGPKSSDAVFSEEWANCTELRC,stoichiometry N,cryo-EM structure [4],6
E. coli SIR2 (EcSIR2) co-expressed with HerA as the SIR2-HerA complex (enzyme) MSIYQGGNKLNEDDFRSHVYSLCQLDNVGVLLGAGASVGCGGKTMKDVWKSFKQNYPELLGALIDKYLLVSQIDSDNNLVNVELLIDEATKFLSVAKTRRCEDEEEEFRKILSSLYKEVTKAALLTGEQFREKNQGKKDAFKYHKELISKLISNRQPGQSAPAIFTTNYDLALEWAAEDLGIQLFNGFSGLHTRQFYPQNFDLAFRNVNAKGEARFGHYHAYLYKLHGSLTWYQNDSLTVNEVSASQAYDEYINDIINKDDFYRGQHLIYPGANKYSHTIGFVYGEMFRRFGEFISKPQTALFINGFGFGDYHINRIILGALLNPSFHVVIYYPELKEAITKVSKGGGSEAEKAIVTLKNMAFNQVTVVGGGSKAYFNSFVEHLPYPVLFPRDNIVDELVEAIANLSKGEGNVPF,stoichiometry N,cryo-EM structure [4],12
"E. coli SIR2 (EcSIR2), expressed alone (enzyme) MSIYQGGNKLNEDDFRSHVYSLCQLDNVGVLLGAGASVGCGGKTMKDVWKSFKQNYPELLGALIDKYLLVSQIDSDNNLVNVELLIDEATKFLSVAKTRRCEDEEEEFRKILSSLYKEVTKAALLTGEQFREKNQGKKDAFKYHKELISKLISNRQPGQSAPAIFTTNYDLALEWAAEDLGIQLFNGFSGLHTRQFYPQNFDLAFRNVNAKGEARFGHYHAYLYKLHGSLTWYQNDSLTVNEVSASQAYDEYINDIINKDDFYRGQHLIYPGANKYSHTIGFVYGEMFRRFGEFISKPQTALFINGFGFGDYHINRIILGALLNPSFHVVIYYPELKEAITKVSKGGGSEAEKAIVTLKNMAFNQVTVVGGGSKAYFNSFVEHLPYPVLFPRDNIVDELVEAIANLSKGEGNVPF",stoichiometry N,cryo-EM structure [5],12
